Experiments:
Format in all cases: functional
[1] = test system: CCRF-CEM; test: Antiproliferative activity against human CCRF-CEM cells assessed as cell growth at 0.5 uM by SRB assay; conditions: read-out: Activity
[2] = test system: OVCAR-4; test: Antiproliferative activity against human OVCAR4 cells assessed as cell growth at 5 uM by SRB assay; conditions: read-out: Activity
[3] = test system: CCRF-CEM; test: Antiproliferative activity against human CCRF-CEM cells assessed as cell growth at […] by SRB assay; conditions: read-out: Activity
[4] = test system: MDA-MB-435; test: Antiproliferative activity against human MDA-MB-435 cells assessed as cell growth at 5 mM by SRB assay; conditions: read-out: Activity
[5] = test system: RXF 393; test: Antiproliferative activity against human RXF393 cells assessed as cell growth at 500 uM by SRB assay; conditions: read-out: Activity
[6] = test system: DU-145; test: Antiproliferative activity against human DU145 cells assessed as cell growth at 0.5 uM by SRB assay; conditions: read-out: Activity
[7] = test system: OVCAR-3; test: Antiproliferative activity against human OVCAR-3 cells assessed as cell growth at 50 uM by SRB assay; conditions: read-out: Activity
[8] = test system: HL-60(TB); test: Antiproliferative activity against human HL-60(TB) cells assessed as cell growth at 500 uM by SRB assay; conditions: read-out: Activity
[9] = test system: NCI-H460; test: Antiproliferative activity against human NCI-H460 cells assessed as cell growth at 5 uM by SRB assay; conditions: read-out: Activity
[10] = test system: OVCAR-4; test: Antiproliferative activity against human OVCAR4 cells assessed as cell growth at 50 uM by SRB assay; conditions: read-out: Activity
[11] = test system: SR; test: Antiproliferative activity against human SR cells assessed as cell growth at 5 uM by SRB assay; conditions: read-out: Activity
[12] = test system: OVCAR-4; test: Antiproliferative activity against human OVCAR4 cells by SRB assay
[13] = test system: TK-10; test: Antiproliferative activity against human TK10 cells by SRB assay
[14] = test system: A549; test: Antiproliferative activity against human A549 cells assessed as cell growth at 5 uM by SRB assay; conditions: read-out: Activity
[15] = test system: DU-145; test: Antiproliferative activity against human DU145 cells assessed as cell growth at 50 uM by SRB assay; conditions: read-out: Activity
[16] = Antiproliferative activity against human […] cells assessed as cell growth at 50 uM by SRB assay; conditions: read-out: Activity
[17] = test system: OVCAR-8; test: Antiproliferative activity against human OVCAR8 cells assessed as cell growth at 5 uM by SRB assay; conditions: read-out: Activity
[18] = test system: OVCAR-3; test: Antiproliferative activity against human OVCAR-3 cells assessed as cell growth at 5 uM by SRB assay; conditions: read-out: Activity
[19] = test system: HOP-62; test: Antiproliferative activity against human HOP62 cells assessed as cell growth at 50 uM by SRB assay; conditions: read-out: Activity
[20] = read-out: LC50 (the source's name)
[21] = read-out: pLC50 (the source's name) (converted)

Compound: O=C(/C=C/c1ccc(O)c(O)c1)OCCc1ccc(O)c(O)c1
- growth at 0.5 µM [1]: 95%
- growth at 5 µM [2]: 95%
- growth [3]: -44%
- growth at 5000 µM [4]: 17%
- growth at 500 µM [5]: 89%
- growth at 0.5 µM [6]: 102%
- growth at 50 µM [7]: 90%
- growth at 500 µM [8]: 37%
- growth at 5 µM [9]: 92%
- growth at 50 µM [10]: 92%
- growth at 5 µM [11]: 81%
- GI50 [12]: 7.37 µM
- CC50 [12, 20]: > 50 µM
- TGI ([12]; read-out: TGI): > 50 µM
- CC50 [12, 21]: > 50.1 µM
- TGI ([12]; read-out: pTGI): > 50.1 µM
- GI50 ([13]; read-out: GI50): 28.1 µM
- CC50 [13, 20]: > 50 µM
- TGI ([13]; read-out: TGI): > 50 µM
- GI50 ([13]; read-out: pGI50 (converted)): 28.2 µM
- CC50 [13, 21]: > 50.1 µM
- TGI ([13]; read-out: pTGI): > 50.1 µM
- growth at 5 µM [14]: 97%
- growth at 50 µM [15]: 100%
- growth at 50 µM [16]: 54%
- growth at 5 µM [17]: 79%
- growth at 5 µM [18]: 99%
- growth at 50 µM [19]: 97%

Source: ChEMBL document CHEMBL1154899, “Synthesis and biological evaluation of caffeic acid 3,4-dihydroxyphenethyl ester” (J Nat Prod, 2010)
